Results published in patent US20250051337A1 (priority 2021, published 2025).

Legend:
STK4 [1] = target: T1, STK4 (Homo sapiens (Human), UniProt Q13043); experiment: ADP-Glo kinase assay, STK4; format: biochemical
Outline: (§1)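 Full-length recombinant human STK3 (50 ng) phosphorylated 250 μg/mL myelin basic protein, and full-length STK4 (50 ng) phosphorylated 300 μg/mL Axltide, both at 50 μM ATP; ADP formed detected by ADP-Glo. Three experiments, each in triplicate.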

STK3 [2] = target: T2, STK3 (Homo sapiens (Human), UniProt Q13188); experiment: ADP-Glo kinase assay, STK3; format: biochemical; settings: ADP-Glo, 50 μM ATP; read-out: STK3 IC50
T2 sequence (Q13188 whole entry): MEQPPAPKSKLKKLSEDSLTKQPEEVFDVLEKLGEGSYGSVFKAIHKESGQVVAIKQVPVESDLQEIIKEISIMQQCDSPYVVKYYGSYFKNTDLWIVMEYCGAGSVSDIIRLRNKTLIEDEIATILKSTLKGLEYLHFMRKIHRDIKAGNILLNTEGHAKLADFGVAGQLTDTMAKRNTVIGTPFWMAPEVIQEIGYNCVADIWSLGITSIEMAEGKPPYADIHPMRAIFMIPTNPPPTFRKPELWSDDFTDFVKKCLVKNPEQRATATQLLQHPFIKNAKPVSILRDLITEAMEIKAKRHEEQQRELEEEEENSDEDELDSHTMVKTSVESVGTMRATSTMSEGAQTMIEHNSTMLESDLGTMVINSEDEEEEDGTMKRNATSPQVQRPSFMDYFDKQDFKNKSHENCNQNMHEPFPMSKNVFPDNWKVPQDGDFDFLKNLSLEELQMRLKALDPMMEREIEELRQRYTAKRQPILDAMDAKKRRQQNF
Outline: as §1

[3] = tested on: phosphorylated MOB1 (Thr35) in HEK293 cells; experiment: Western blot analysis of p-MOB1 in HEK293 cells; format: cell-based; settings: 10 μM, 4 h, then H2O2 50 μM 2 h, vs DMSO
Description: Cells were harvested by pipetting, pelleted by centrifugation at 1400 rpm for 4 min, and lysed in RIPA buffer for 10 min at room temperature. The lysates were centrifuged at 12,000×g at room temperature (RT) for 10 min and the supernatants were recovered. Protein concentrations in the supernatants were determined using a BCA assay (Pierce/Thermo Scientific). Proteins were separated on NovexTM WedgeWellTM 4-20% Tris-Glycine Gels (Invitrogen; Carlsbad, CA, USA) and transferred to polyvinylidene difluoride (Trans-Blot® TurboTM Transfer Pack) membranes. […] Danvers. MA. USA). Blots were rinsed three times with TBST and then incubated in 5% nonfat milk containing horseradish peroxidase (HRP)-conjugated mouse anti-rabbit IgG secondary Ab (Cell Signaling Technology) for 1 h at RT. Blots were washed three times with TBST, developed using Pierce® ECL Western Blotting reagent, and imaged and analyzed using with ImageJ software. Quantitative data are expressed as the level of phosphorylated MOB1 normalized to total MOB1. To confirm that the cellular mechanism of action of our inhibitors was through inhibition of Hippo pathway signaling. […] Inhibition of STK3/4 in vitro and in vivo can produce decreased phosphorylation of the Hippo pathway adapter protein MOB1 at […].

STK3 [4] = target: T2, STK3; experiment: NanoBRET intracellular kinase assay, STK3; format: cell-based
Description: (§2) Full-length STK3, STK4, and LRRK2 kinase was cloned in-frame with a C-terminal NanoLuc-fusion (Promega: Madison, WI, USA) and the plasmid was transfected into HEK293T cells using FuGENE HD (Promega, E2312). […] After 2 h at 37° C. in a 5% CO2 atmosphere, NanoBRET NanoGlo Substrate+Extra-cellular NanoLuc Inhibitor (Promega, N2540) was added, and filtered luminescence was measured on a PHERAstar plate reader (BMG Labtech; Ortenberg, Germany) equipped with a lumi-nescence filter pair (450 nm BP filter (donor) and 610 nm LP filter (acceptor)).
(§3) This assay measured the apparent affinity of test compounds by competitive displacement of the NanoBRET™ tracer, reversibly bound to a NanoLuc® luciferase-kinase fusion in cells. To evaluate potential off-target activity of the inhibitors, the inhibition of LRRK2 in live cells by the STK3/4 inhibitors compounds described herein were measured. […] A 50 nM tracer and these compounds were added to cells and incubated for 2 h.

LRRK2 = LRRK2 (Homo sapiens (Human), UniProt Q5S007); experiment: NanoBRET intracellular kinase assay, LRRK2; format: cell-based; settings: transfected HEK293 cells, 2 h
Chain of LRRK2 (Q5S007 whole entry, species assumed, the tested form may be a part): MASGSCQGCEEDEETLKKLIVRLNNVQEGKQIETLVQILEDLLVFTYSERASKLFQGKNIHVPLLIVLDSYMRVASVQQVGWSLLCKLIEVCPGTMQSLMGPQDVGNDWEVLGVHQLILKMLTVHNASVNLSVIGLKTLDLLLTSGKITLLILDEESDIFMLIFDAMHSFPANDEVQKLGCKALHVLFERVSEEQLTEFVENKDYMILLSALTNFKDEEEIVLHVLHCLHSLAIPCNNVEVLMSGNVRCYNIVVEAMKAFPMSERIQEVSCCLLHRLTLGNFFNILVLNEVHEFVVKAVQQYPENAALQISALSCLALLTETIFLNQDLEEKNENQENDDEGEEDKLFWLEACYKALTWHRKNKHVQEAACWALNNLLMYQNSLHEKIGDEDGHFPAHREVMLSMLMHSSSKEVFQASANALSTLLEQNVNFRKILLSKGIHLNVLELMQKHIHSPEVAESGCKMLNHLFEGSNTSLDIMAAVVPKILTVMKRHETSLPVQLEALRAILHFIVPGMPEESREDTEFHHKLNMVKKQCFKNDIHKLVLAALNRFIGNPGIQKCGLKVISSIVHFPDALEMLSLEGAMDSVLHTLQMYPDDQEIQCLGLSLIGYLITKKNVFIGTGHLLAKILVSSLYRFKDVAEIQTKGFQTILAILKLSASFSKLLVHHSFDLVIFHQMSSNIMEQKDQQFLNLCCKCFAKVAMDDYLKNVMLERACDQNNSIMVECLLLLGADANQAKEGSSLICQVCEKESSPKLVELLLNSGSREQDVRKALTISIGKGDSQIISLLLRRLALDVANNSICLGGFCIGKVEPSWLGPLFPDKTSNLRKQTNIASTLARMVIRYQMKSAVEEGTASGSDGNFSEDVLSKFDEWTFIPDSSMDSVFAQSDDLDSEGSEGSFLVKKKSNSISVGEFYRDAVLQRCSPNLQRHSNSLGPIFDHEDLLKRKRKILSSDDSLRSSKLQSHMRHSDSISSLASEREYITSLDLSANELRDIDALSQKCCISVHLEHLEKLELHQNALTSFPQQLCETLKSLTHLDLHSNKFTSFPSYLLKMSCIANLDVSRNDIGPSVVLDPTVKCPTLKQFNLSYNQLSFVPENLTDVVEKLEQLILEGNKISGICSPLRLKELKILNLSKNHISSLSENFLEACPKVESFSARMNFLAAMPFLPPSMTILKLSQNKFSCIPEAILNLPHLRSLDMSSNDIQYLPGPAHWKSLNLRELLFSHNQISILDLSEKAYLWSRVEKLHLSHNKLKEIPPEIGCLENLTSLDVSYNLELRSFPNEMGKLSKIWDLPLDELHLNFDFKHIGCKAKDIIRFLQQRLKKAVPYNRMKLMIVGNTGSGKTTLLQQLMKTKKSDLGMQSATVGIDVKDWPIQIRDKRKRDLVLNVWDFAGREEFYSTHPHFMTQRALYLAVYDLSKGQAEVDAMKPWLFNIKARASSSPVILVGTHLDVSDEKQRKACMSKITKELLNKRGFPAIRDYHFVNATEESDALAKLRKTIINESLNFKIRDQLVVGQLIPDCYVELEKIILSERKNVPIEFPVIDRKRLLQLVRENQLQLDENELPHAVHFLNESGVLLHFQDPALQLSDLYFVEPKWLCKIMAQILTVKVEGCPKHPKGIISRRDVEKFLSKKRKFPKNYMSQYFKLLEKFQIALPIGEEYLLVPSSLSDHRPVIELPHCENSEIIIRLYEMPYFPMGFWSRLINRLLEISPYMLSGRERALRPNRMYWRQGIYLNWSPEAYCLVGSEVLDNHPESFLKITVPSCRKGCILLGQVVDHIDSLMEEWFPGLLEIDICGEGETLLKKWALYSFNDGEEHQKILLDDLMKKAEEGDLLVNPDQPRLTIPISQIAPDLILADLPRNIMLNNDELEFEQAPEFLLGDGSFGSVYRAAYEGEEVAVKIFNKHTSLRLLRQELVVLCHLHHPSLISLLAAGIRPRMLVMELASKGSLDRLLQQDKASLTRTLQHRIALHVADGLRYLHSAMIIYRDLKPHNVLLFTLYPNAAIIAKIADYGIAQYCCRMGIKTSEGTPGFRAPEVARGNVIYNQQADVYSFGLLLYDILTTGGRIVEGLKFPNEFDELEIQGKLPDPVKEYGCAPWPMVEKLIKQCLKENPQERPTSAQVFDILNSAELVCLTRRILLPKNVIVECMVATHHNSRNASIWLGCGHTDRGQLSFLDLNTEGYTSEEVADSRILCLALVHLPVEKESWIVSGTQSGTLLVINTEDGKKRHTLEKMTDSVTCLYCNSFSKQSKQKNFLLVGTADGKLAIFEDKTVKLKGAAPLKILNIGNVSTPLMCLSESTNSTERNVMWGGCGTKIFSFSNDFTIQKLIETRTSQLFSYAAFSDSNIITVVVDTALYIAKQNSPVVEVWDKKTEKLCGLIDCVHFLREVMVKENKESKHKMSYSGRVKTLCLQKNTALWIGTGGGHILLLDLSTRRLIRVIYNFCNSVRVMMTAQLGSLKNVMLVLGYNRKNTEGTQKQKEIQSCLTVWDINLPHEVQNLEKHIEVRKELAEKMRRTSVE
Description: Full-length STK3, STK4, and LRRK2 kinase was cloned in-frame with a C-terminal NanoLuc-fusion (Promega: Madison, WI, USA) and the plasmid was transfected into HEK293T cells using FuGENE HD (Promega, E2312). After 20 h, transfected cells were mixed with inhibitors and 50 nM NanoBRET Kinase Tracer K10 (Promega) and reseeded at a density of 2× 10^5 cells/mL in Opti-Minimal Essential Medium (MEM) without phenol red (Life Technologies; Carlsbad, CA, USA) in 384-well plates (Greiner 781-207; Kremsmunster, Austria). After 2 h at 37° C. in a 5% CO2 atmosphere, NanoBRET NanoGlo Substrate+Extra-cellular NanoLuc Inhibitor (Promega, N2540) was added, and filtered luminescence was measured on a PHERAstar plate reader (BMG Labtech; Ortenberg, Germany) equipped with a lumi-nescence filter pair (450 nm BP filter (donor) and 610 nm LP filter (acceptor)).
To confirm cellular potency for compounds described herein, the […] were used to detect engagement of STK3 and STK4 in live cells using the NanoBRET™ intracellular kinase assay, marking the first report of a NanoBRET assay for STK3 and STK4. This assay measured the apparent affinity of test compounds by competitive displacement of the NanoBRET™ tracer, reversibly bound to a NanoLuc® luciferase-kinase fusion in cells. To evaluate potential off-target activity of the inhibitors, the inhibition of LRRK2 in live cells by the STK3/4 inhibitors compounds described herein were measured. Cultured HEK293 cells were either transfected with NanoLuc®-STK3 fusion vector, NanoLuc®-STK4 fusion, or with NanoLuc®-LRRK2 vector for 24 h. A 50 nM tracer and these compounds were added to cells and incubated for 2 h. These compounds tested in the assays decreased the NanoBRET™ signal for both STK3 and STK4 at varying potencies and confirming cellular target engagement of STK3/4.

[5] = In vivo plasma and liver concentrations, 20 mg/kg intraperitoneal; settings: female, C57BL/6J, mouse, ip, 20 mg/kg
Description: All animal procedures were approved by the Sanford Burnham Prebys Medical Discovery Institute Institutional Animal Care and Use Committee and were performed according to the NIH guidelines for the Care and Use of Laboratory Animals. Adult female C57BL/6J mice were purchased from Jackson Laboratories and housed with free access to food and water on a 12 h light/dark cycle. Compounds were formulated in 5% DMSO, 10% Tween-80, and 85% H2O and injected intraperitoneally at 10 or 20 mg/kg. Blood samples were collected retro-orbitally at the indicated times and plasma was prepared by centrifugation. Livers were collected post mortem at the indicated times.
For quantification of compound, plasma samples were extracted with acetonitrile: water 4:1 with 0.1% formic acid containing indomethacin as an internal standard. Samples were centrifuged and the supernatants were diluted with acetonitrile: water and analyzed by LC-MS/MS using a Shimadzu Nexera X2 High-performance liquid chromatography (HPLC) (Shimadzu Scientific Instruments: Kyoto, Japan) coupled to an AB Sciex 6500 QTRAP (AB Sciex LLC: Toronto, Canada).
Adult female C57BL/6 mice (n=3/group) were intraperitoneally injected with vehicle or test compound (20 mg/kg), and blood samples and livers were collected at 30 min and 1 h post-injection, respectively. Plasma concentrations of all 13 compounds were >1.4 μM at 30 min after injection, and 10 compounds had liver concentrations >1.0 μM at 1 h after injection, as measured by LC-MS/MS, with particularly high plasma concentrations obtained with compounds 11 (15.9 μM), 16 (11.6 μM) and 105 (8.7 μM) (Table 5). To evaluate target engagement in vivo, the total and phosphorylated MOB1 levels in livers collected at 1 h post-injection was examined.
Tween 80 and water and were administered to mice by intraperitoneal injection. Blood samples and livers were collected at 30 min and 1 h post-dose, respectively. Plasma concentrations and relative pMOB1 levels were determined by LC-MS/MS and western blot analysis, respectively. (n=3).

STK3 [6] = target: T2, STK3; experiment: Thermal shift assay (ThermoFluor differential scanning fluorimetry); format: binding; settings: read-out: ΔTm
Description: Temperature-dependent protein unfolding profiles were measured using a Real-Time PCR Mx3005p machine (Stratagene: San Diego, CA, USA). Data evaluation and melting temperature calculation were performed using Protein Thermal Shift™ Software v1.2.
To further evaluate binding of these compounds to STK3/4, differential scanning fluorimetry (protein thermal shift using ThermoFluor technology) assay was used to benchmark the capacity to stabilize the kinase domain. The melting temperature (Tm) of STK3 or STK4 was measured in the presence of vehicle (DMSO) or 6, 11 or 23.

[7] = tested on: YAP/TAZ-TEAD activity (8×GTIIC-luciferase) in HEK293 cells; experiment: YAP-TAZ-TEAD luciferase assay; format: cell-based; settings: 10 μM, 48 h, vs DMSO
Description: 8×GTIIC-luciferase was a gift from Stefano Piccolo (Addgene plasmid #34615, http://n2t.net/addgene: 34615: RRID: Addgene_34615). HEK293 cells were transfected with 8×GTIIC-luciferase plasmid and control Renilla luciferase plasmid using jetPRIME transfection reagent (Polyplus-transfection RSA: New York, NY. USA) for 24 h and cultured in Dulbeco's Modified Eagle Media (DMEM) Glutamax supplemented with 10% Fetal Bovine Serum (FBS), antibiotic/antimycotic, and sodium pyruvate (Gibco. Thermo FisherScientific: Waltham. MA. USA). The transfected cells were treated with 10 μM compound in triplicate and incubated for 48 h at 37° C. Firefly and Renilla luminescence were detected with a Dual-Glo Luciferase Assay System (Promega #E2920) according to the manufacturer's recommendations. The ratio of firefly to Renilla luminescence was calculated for each well and normalized to the ratio in control cells incubated with DMSO.
STK3/4 can negatively regulate the activity of the YAP/TAZ-TEAD protein complex and, accordingly, inactivation of these kinases reduces the transcription of YAP/TAZ-TEAD target genes. […] The results confirmed the intracellular on-target activity of our potent compounds for inhibiting STK3 and STK4 activity and targeting gene expression in the Hippo signaling pathway.

STK4 [8] = target: T1, STK4; experiment: NanoBRET intracellular kinase assay, STK4; format: cell-based; settings: transfected HEK293 cells, 2 h
Description: as §2, §3

[9] = tested on: ULK1/2 and Aurora kinases; settings: including inhibition of ULK1/2 and Aurora kinases; cited from earlier work
[10] = NanoBRET, transfected HEK293 cells, 2 h, read-out: STK3: IC50
[11] = ADP-Glo, 50 μM ATP, read-out: STK4 IC50

T1 sequence (Q13043 whole entry): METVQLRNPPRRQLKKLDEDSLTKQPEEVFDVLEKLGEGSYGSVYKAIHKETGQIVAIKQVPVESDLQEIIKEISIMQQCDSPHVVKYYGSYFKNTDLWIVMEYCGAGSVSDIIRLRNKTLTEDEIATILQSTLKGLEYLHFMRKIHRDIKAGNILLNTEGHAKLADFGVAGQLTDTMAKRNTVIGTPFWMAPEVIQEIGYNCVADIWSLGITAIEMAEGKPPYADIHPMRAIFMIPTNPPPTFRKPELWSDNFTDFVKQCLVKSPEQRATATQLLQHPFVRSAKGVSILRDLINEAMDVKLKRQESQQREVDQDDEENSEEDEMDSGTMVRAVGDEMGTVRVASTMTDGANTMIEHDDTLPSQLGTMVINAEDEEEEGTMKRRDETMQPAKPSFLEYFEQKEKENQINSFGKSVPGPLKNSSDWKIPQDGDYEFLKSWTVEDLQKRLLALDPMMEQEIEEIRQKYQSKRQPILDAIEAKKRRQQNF

| SMILES | IC50 (STK4 [1]) [µM] | IC50 (STK3 [2]) [µM] | relative expression level of phosphorylated MOB1 [3] | IC50 (STK3 [4]; [10]) [µM] | IC50 (LRRK2) [µM] | concentration at 30 min [5] [µM] | concentration at 1 h [5] [µM] | ΔTm at 10 µM (STK3 [6]) [°C] | YAP/TAZ-TEAD activity (luciferase reporter) [7] | IC50 (STK3 [4]) [µM] | LRRK2: IC50 (LRRK2) | IC50 (STK4 [1]; [11]) [µM] | IC50 (STK4 [8]) [µM] | off-target activity in vitro [9] |
| --- | --- | --- | --- | --- | --- | --- | --- | --- | --- | --- | --- | --- | --- | --- |
| Cc1ccccc1-c1c[nH]c2ncnc(N3CCOCC3)c12 [Compound 2, 4-(5-(o-Tolyl)-7H-pyrrolo[2,3-d]pyrimidin-4-yl)morpholine] | 1 to 5 | > 5 | significant reduction |  |  |  |  |  |  |  |  |  |  |  |
| Cc1cccc(-c2c[nH]c3ncnc(N4CCOCC4)c23)c1 [Compound 5, 4-(5-(m-Tolyl)-7H-pyrrolo[2,3-d]pyrimidin-4-yl)morpholine] |  | < 1 |  | < 1 | ≤ 1 | 2.8 | 7.3 |  |  |  |  |  |  |  |
| Fc1cccc(-c2c[nH]c3ncnc(N4CCOCC4)c23)c1 [Compound 7, 4-(5-(3-Fluorophenyl)-7H-pyrrolo[2,3-d]pyrimidin-4-yl)morpholine] |  | < 1 |  | < 1 | ≤ 1 | 6 | 14.9 | 8.4 | marked increase |  |  |  |  |  |
| Clc1cccc(-c2c[nH]c3ncnc(N4CCCCC4)c23)c1 [Compound 15, 5-(3-Chlorophenyl)-4-(piperidin-1-yl)-7H-pyrrolo[2,3-d]pyrimidine] |  | < 1 |  |  |  | 3.7 | 6.5 | 8.3 |  | 1 to 5 | B (B: IC50 is >2000 nM and <1000 nM) |  |  |  |
| CC1(N)CCN(c2ncnc3[nH]cc(-c4cccc(Cl)c4)c23)CC1 [Compound 102, 1-(5-(3-chlorophenyl)-7H-pyrrolo[2,3-d]pyrimidin-4-yl)-4-methylpiperidin-4-amine] |  | < 1 |  |  |  | 1.4 | 15.9 |  |  |  |  |  |  |  |
| CNC1CCN(c2ncnc3[nH]cc(-c4cccc(Cl)c4)c23)CC1 [Compound 106, 1-(5-(3-chlorophenyl)-7H-pyrrolo[2,3-d]pyrimidin-4-yl)-N-methylpiperidin-4-amine] |  |  |  |  | ≥ 2 | 2.2 | 7.8 |  |  |  |  |  |  |  |
| CN(CCO)c1ncnc2[nH]cc(-c3cccc(Cl)c3)c12 [Compound 108, 2-((5-(3-chlorophenyl)-7H-pyrrolo[2,3-d]pyrimidin-4-yl)(methyl)amino)ethan-1-ol] |  | < 1 | significant reduction | < 1 |  | 7.3 | 0.9 |  |  |  | B (B: IC50 is >2000 nM and <1000 nM) | < 1 | < 1 |  |
| OCCCNc1ncnc2[nH]cc(-c3cccc(Cl)c3)c12 [Compound 119, 3-((5-(3-chlorophenyl)-7H-pyrrolo[2,3-d]pyrimidin-4-yl)amino)propan-1-ol] |  | < 1 |  | < 1 | ≥ 2 | 4.5 | 0.003 |  |  |  |  |  |  |  |
| CC(CO)CN(C)c1ncnc2[nH]cc(-c3cccc(Cl)c3)c12 (stereo not shown) [Compound 121, 3-((5-(3-chlorophenyl)-7H-pyrrolo[2,3-d]pyrimidin-4-yl)(methyl)amino)-2-methylpropan-1-ol] |  | < 1 | significant reduction | < 1 | ≥ 2 | 1.8 | 0.006 |  |  |  |  | < 1 | < 1 |  |
| CN1C(=O)c2sccc2N(C)c2nc(Nc3ccc(S(N)(=O)=O)cc3)ncc21 [XMU-MP-1] |  |  |  |  |  |  |  |  |  |  |  |  |  | notable off-target activity |
